Details: 298.15 K; Liquid; Gas chromatography

Point of comparison: `CCCCCCCC1CCCC(=O)O1` (stereo unspecified) [δ-dodecanolactone], “vapor or sublimation pressure” value 3e-05 kPa. Against it:
- CCC1CCC(=O)O1 (stereo unspecified) [2(3H)-furanone, 5-ethyldihydro-] — higher, 0.0225 kPa
- CCCCC1CCC(=O)O1 (stereo unspecified) [γ-octanolactone] — higher, 0.00278 kPa
- CCCCCCC1CCCC(=O)O1 (stereo unspecified) [δ-undecanolactone] — higher, 9e-05 kPa
- CCCCCC1CCCC(=O)O1 (stereo unspecified) [2H-pyran-2-one, tetrahydro-6-pentyl-] — higher, 0.00027 kPa
- CCCCCCC1CCC(=O)O1 (stereo unspecified) [γ-decalactone] — higher, 0.00033 kPa
- CCCCCC1CCC(=O)O1 (stereo unspecified) [2(3H)-furanone, dihydro-5-pentyl-] — higher, 0.00097 kPa
- CCCC1CCCC(=O)O1 (stereo unspecified) [2H-pyran-2-one, tetrahydro-6-propyl-] — higher, 0.00221 kPa
- CCCCC1CCCC(=O)O1 (stereo unspecified) [δ-nonanolactone] — higher, 0.00076 kPa
- CCCCCCCCC1CCC(=O)O1 (stereo unspecified) [γ-dodecanolactone] — higher, 4e-05 kPa
- CCCCCCCC1CCC(=O)O1 (stereo unspecified) [γ-undecanolactone] — higher, 0.00012 kPa

Reference: the NIST ThermoML archive (doi:10.1016/j.jct.2014.01.016)
